Reference: paper PMC8023582 (ACS Chemical Biology, 2021)

Target: T1, RORα (Homo sapiens, UniProt P35398)
T1 sequence (P35398 272-510 limits assumed): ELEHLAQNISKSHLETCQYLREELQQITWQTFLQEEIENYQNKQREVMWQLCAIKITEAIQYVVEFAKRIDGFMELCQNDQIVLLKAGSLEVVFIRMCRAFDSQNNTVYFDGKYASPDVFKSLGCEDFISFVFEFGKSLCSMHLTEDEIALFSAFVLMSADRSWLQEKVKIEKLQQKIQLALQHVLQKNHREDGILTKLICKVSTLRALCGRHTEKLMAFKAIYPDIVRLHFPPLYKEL
Assay: TR-FRET coactivator recruitment assay on RORα
Type: biochemical
Conditions: read-out: RORα: cofactor recruitment IC50; Figure 3B

IC50: 190 ± 50 nM
Structure (SMILES): CC(C)CCC[C@@H](C)[C@H]1CC[C@H]2[C@@H]3CC=C4C[C@@H](OS(=O)(=O)O)CC[C@]4(C)[C@H]3CC[C@]12C [Chol-SO4, sulfated cholesterol]
